Assay results from ChEMBL document CHEMBL5500343, “Activity refinement of aryl amino acetamides that target the P. falciparum STAR-related lipid transfer 1 protein” (Eur J Med Chem, 2024).

Tests used:
[1] = tested on: Plasmodium falciparum; test: Antimalarial activity against asexual blood stage Plasmodium falciparum 3D7 assessed as reduction in parasite growth incubated for 72 hrs by LDH assay; assay type: functional, organism-based; details: 3D7, 72 h
[2] = tested on: HepG2; test: Cytotoxicity against human HepG2 cells assessed as reduction in cell viability incubated for 48 hrs by Cell Titer-Glo assay; assay type: functional, cell-based; details: HepG2, 48 h

COc1ccc(NCC(=O)Nc2ccc(F)c(Cl)c2)cc1S(=O)(=O)N1CCOCC1
EC50 [1]: 0.43 µM | EC50 [2]: > 40 µM

Cc1ccc(NCC(=O)Nc2ccccc2)cc1S(=O)(=O)N1CCOCC1
EC50 [1]: 2.1 µM | EC50 [2]: > 40 µM

O=C(CNc1ccc(Cl)c(S(=O)(=O)N2CCOCC2)c1)Nc1cccc(OC(F)(F)F)c1
EC50 [1]: 5 µM | EC50 [2]: 19.8 µM

Cc1ccc(NCC(=O)Nc2cccc(Cl)c2)cc1S(=O)(=O)N1CCOCC1
EC50 [1]: 0.36 µM | EC50 [2]: > 40 µM

O=C(CNc1ccc(Cl)c(S(=O)(=O)N2CCOCC2)c1)Nc1cncc(Cl)c1
EC50 [1]: 0.41 µM | EC50 [2]: > 40 µM

O=C(Nc1ccc(F)c(Cl)c1)C(Cc1ccccc1)Nc1ccc(Cl)c(S(=O)(=O)N2CCOCC2)c1 (racemic)
EC50 [1]: 1.4 µM | EC50 [2]: 15.5 µM

CCC[C@H](Nc1ccc(Cl)c(S(=O)(=O)N2CCOCC2)c1)C(=O)Nc1ccc(F)c(Cl)c1
EC50 [1]: 0.14 µM | EC50 [2]: 16.3 µM

O=C(Nc1ccc(F)c(Cl)c1)[C@@H]1CCCCN1c1ccc(Cl)c(S(=O)(=O)N2CCOCC2)c1
EC50 [1]: 0.42 µM | EC50 [2]: 21 µM

CC(=O)N1CCN(S(=O)(=O)c2cc(NCC(=O)Nc3ccc(F)c(Cl)c3)ccc2Cl)CC1
EC50 [1]: 9.1 µM | EC50 [2]: > 40 µM

N#Cc1cccc(NC(=O)CNc2ccc(Cl)c(S(=O)(=O)N3CCOCC3)c2)c1
EC50 [1]: 1.5 µM | EC50 [2]: > 40 µM

O=C(Nc1ccc(F)c(Cl)c1)C(Nc1ccc(Cl)c(S(=O)(=O)N2CCOCC2)c1)c1ccccc1 (racemic)
EC50 [1]: 6.3 µM | EC50 [2]: 19.3 µM

Cc1cc(Cl)c(S(=O)(=O)N2CCOCC2)cc1OCC(=O)Nc1ccc(F)c(Cl)c1
EC50 [1]: 0.3 µM | EC50 [2]: > 40 µM

O=C(COc1ccc(Cl)c(S(=O)(=O)N2CCOCC2)c1)Nc1ccc(F)c(Cl)c1
EC50 [1]: 0.81 µM | EC50 [2]: > 40 µM

CN1CCC(NS(=O)(=O)c2cc(NCC(=O)Nc3ccc(F)c(Cl)c3)ccc2Cl)CC1
EC50 [1]: > 10 µM | EC50 [2]: > 40 µM

Cc1ccc(NCC(=O)Nc2ccc(F)c(Cl)c2)cc1S(=O)(=O)N1CCOCC1
EC50 [1]: 0.27 µM

O=C(CNc1ccc(F)c(S(=O)(=O)N2CCOCC2)c1)Nc1ccc(F)c(Cl)c1
EC50 [1]: 0.4 µM

Cc1cc(Cl)c(S(=O)(=O)N2CCOCC2)cc1OCC(=O)NC1CCCCC1
EC50 [1]: 1.6 µM | EC50 [2]: > 40 µM

CC(C)CC(Nc1ccc(Cl)c(S(=O)(=O)N2CCOCC2)c1)C(=O)Nc1ccc(F)c(Cl)c1 (racemic)
EC50 [1]: 0.85 µM | EC50 [2]: 9.5 µM

C[C@@H](Nc1ccc(Cl)c(S(=O)(=O)N2CCOCC2)c1)C(=O)Nc1cncc(Cl)c1
EC50 [1]: 1.1 µM | EC50 [2]: > 40 µM

O=C(CNc1ccc(Cl)c(S(=O)(=O)N2CCOCC2)c1)Nc1ccnc(Cl)c1
EC50 [1]: 1.1 µM | EC50 [2]: > 40 µM

CCC(Nc1ccc(Cl)c(S(=O)(=O)N2CCOCC2)c1)C(=O)Nc1ccc(F)c(Cl)c1 (racemic)
EC50 [1]: 0.011 µM | EC50 [2]: 24.5 µM

COC1CCN(S(=O)(=O)c2cc(NCC(=O)Nc3ccc(F)c(Cl)c3)ccc2Cl)CC1
EC50 [1]: 1.5 µM | EC50 [2]: > 40 µM

Cc1ccc(NCC(=O)Nc2cccc(C(F)(F)F)c2)cc1S(=O)(=O)N1CCOCC1
EC50 [1]: 3.8 µM | EC50 [2]: > 40 µM

Cc1cc(Cl)c(S(=O)(=O)N2CCOCC2)cc1NCC(=O)NC1CCCCC1
EC50 [1]: 1 µM | EC50 [2]: > 40 µM

O=C(CNc1ccc(Cl)c(S(=O)(=O)N2CCOCC2)c1)Nc1cc(Cl)ccn1
EC50 [1]: 2.8 µM | EC50 [2]: > 40 µM

CC1CCN(S(=O)(=O)c2cc(NCC(=O)Nc3ccc(F)c(Cl)c3)ccc2Cl)CC1
EC50 [1]: 0.26 µM | EC50 [2]: 26.8 µM

CN1CCN(S(=O)(=O)c2cc(NCC(=O)Nc3ccc(F)c(Cl)c3)ccc2Cl)CC1
EC50 [1]: > 10 µM | EC50 [2]: > 40 µM

Cc1cc(Cl)c(S(=O)(=O)N2CCOCC2)cc1NCC(=O)Nc1ccc(F)c(Cl)c1
EC50 [1]: 0.13 µM | EC50 [2]: > 40 µM

O=C(COc1ccc(Cl)c(S(=O)(=O)N2CCOCC2)c1)NC1CCCCC1
EC50 [1]: 4.3 µM | EC50 [2]: > 40 µM

CN(C)C1CCN(S(=O)(=O)c2cc(NCC(=O)Nc3ccc(F)c(Cl)c3)ccc2Cl)CC1
EC50 [1]: > 10 µM | EC50 [2]: > 40 µM

O=C(CNc1ccc(Cl)c(S(=O)(=O)N2CCOCC2)c1)Nc1cccc(Cl)c1
EC50 [1]: 0.28 µM | EC50 [2]: > 40 µM
